Where “and” joins values, the source holds several entries; their conditions need not be identical. Equal entries are not always repeated. Marks after values point to notes of the source that are not given here.
Legend:
[1] = Chelating capacity (ferrozine) assay; conditions: 0.0245 to 0.268 μM
Description: Chelating capacity assay is conducted following the method outlined by Chong et al. with minor modifications. Samples of 0.1 mL with concentrations ranging from 0.0245 to 0.268 μM were combined with 0.5 mL of a […] and 0.2 mL of a 5 mM ferrozine solution. Then, a 10-min incubation at room temperature, absorbance was recorded at 562 nm using a blank solution in a 96-well plate reader. EDTA served as a positive control. The negative control consists of a sample devoid of any substances, including EDTA and synthetic compounds. The percentage of ferrous chelation was calculated using the Equation (1).

[2] = tested on: differentiated 3T3-L1 adipocytes; assay: Intracellular ROS production (DCFH-DA, AAPH-stimulated); format: cell-based; conditions: 24 h treatment
Description: Differentiation of 3T3-L1 cells was performed within one week through culturing in MDI medium, which consisted of 0.5 mM 3-isobutyl-1-methylxanthine, 1 μM dexamethasone, and 1 μg/mL insulin, for 48 h in 10% FBS-DMEM. Subsequently, the cells were transferred to fresh 10% FBS and 90% DMEM supplemented with 1 μg/mL insulin.
On day 8 of differentiation, intracellular ROS levels in 3T3 L1 cells were assessed using the oxidation-sensitive fluorogenic probe 2′,7′-dichlorodihydrofluorescein-diacetate (DCFH-DA), following a method established by Forbes-Hernández et al., with minor modification. Post-differentiation, the cells were treated with the respective doses of the compounds for a period of 24 h. Following this, the cells underwent incubation with DCFH-DA (25 μM) at 37 °C for a duration of 30 min in the absence of light. Consequently, the cells were stimulated with 1 mM AAPH as a ROS initiator for a duration of 1 h. The density of light was measured using a spectrofluorometer with an excitation wavelength of 480 nm and an emission wavelength of 530 nm.

[3] = DPPH radical scavenging assay; conditions: average inhibition, concentration range 0.0245 to 0.268 μM, n = 3
Description: The DPPH (2,2-diphenyl-1-picrylhydrazyl) radical scavenging assay was conducted to evaluate the antioxidant activity of compounds 5–12 following the method outlined by Chong et al. with minor modifications. A 1 mL sample with a concentration range of 0.0245 to 0.268 μM was introduced to a 1 mL methanol solution of DPPH ([…]) and vortexed. Following a 20-min incubation at 25 °C, absorbance was assessed at 527 nm using a UV-vis spectrophotometer, with blank as reference. Ascorbic acid served as a positive control. The negative control consists of a setup without samples (ascorbic acid and synthetic compounds). The percentage of DPPH free radical inhibition was determined using Equation (1) provided below.
% of DPPH radical scavenging activity was calculated using the following equation:(1) AA%=100−[Abs sample−Abs blank100/Abs control] • Equation (1) where: • Abs control = absorbance of the control. • Abs sample = absorbance of the sample.

pancreatic lipase = molecular target: T1, pancreatic lipase (Sus scrofa, UniProt P00591); assay: In vitro pancreatic lipase inhibition assay; format: biochemical; conditions: porcine pancreas powder, pNPB substrate, n = 3
T1 construct: The enzyme source utilized was porcine pancreas powder; from tissue; host or cells: porcine pancreas (powder)
T1 sequence (P00591 1-450): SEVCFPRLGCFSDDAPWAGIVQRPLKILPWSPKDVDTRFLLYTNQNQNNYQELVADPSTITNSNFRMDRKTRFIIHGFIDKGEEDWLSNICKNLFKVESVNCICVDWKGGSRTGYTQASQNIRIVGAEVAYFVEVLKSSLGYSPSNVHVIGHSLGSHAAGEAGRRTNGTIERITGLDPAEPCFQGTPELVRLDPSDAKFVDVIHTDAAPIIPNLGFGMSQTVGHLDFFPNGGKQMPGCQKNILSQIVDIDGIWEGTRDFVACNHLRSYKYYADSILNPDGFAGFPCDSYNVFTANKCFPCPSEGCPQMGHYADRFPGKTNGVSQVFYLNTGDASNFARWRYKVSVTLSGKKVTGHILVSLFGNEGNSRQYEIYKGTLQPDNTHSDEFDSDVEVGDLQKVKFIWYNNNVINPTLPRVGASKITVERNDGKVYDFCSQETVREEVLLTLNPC
Description: The pancreatic lipase inhibition assay is conducted following the method outlined by Ajayi et al. (2022) with minor modifications. The enzyme source utilized was porcine pancreas powder at a concentration of 0.1 mg·mL^−1 in Tris–HCl buffer, pH 8.0. In a 96-well plate, 50 μL of phosphate–buffer solution (pH 7.0), 50 μL of pNPB (500 μM), and 50 μL of test samples 5–12 with concentrations ranging from 0.0245 to 0.268 μM were pipetted and mixed thoroughly. Fifty microliters of pancreatic enzyme were added to the resultant mixture and incubated at room temperature for 30 min. The resulting yellow p-nitrophenol was measured spectrophotometrically at 405 nm. Control was conducted concurrently without the addition of a test sample. […] PL inhibition was determined using the following formula: PL inhibition (%) = [(Activity of control − activity of test)/activity of control] × 100. The IC50 is determined utilizing GraphPad 10 software (GraphPad Software, LLC, San Diego, CA, USA).

BSA-glucose = BSA-glucose antiglycation assay; parameters: species or system bovine; conditions: 7 days, 37 °C, pH 7.4, n = 3; read-out: BSA-glucose glycation IC50
Description: The BSA-glucose assay is conducted according to the methodology outlined by Mridula et al.. […] The reaction mixture was thoroughly mixed and incubated for 5 min. Following incubation, 0.5 mL of sodium azide was added to each tube. The tubes underwent incubation at 37 °C in the absence of light for a duration of seven days. Aminoguanidine is used as a positive control. Following a seven-day incubation period, the samples were analyzed with the Omega microplate reader (BMG LABTECH, Ortenberg, Germany), measuring fluorescence intensity at an excitation wavelength of 370 nm and an emission wavelength of 440 nm. The experiment was conducted in triplicate.

Row | Structure (SMILES) | Chelating activity [1] | % ROS Generation ([2]; 0.02 μM) | % ROS Generation ([2]; 0.06 μM) | % ROS Generation ([2]; 0.1 μM) | % ROS Generation ([2]; 0.2 μM) | % ROS Generation ([2]; 0.25 μM) | DPPH mean inhibition [3] [%] | IC50 (pancreatic lipase) | IC50 (BSA-glucose) [µM]
1 | O=C(O)CN(CCN(CC(=O)O)CC(=O)O)CC(=O)O [EDTA] | increasing inhibitory action with increased concentration | – | – | – | – | – | – | – | –
2 | O=S(=O)(O)CCCN1c2ccc(Cl)cc2Sc2cc3ccccc3nc21 [Compound 7, 3-(9-chloro[3,2-b]benzo[1,4]thiazin-6-yl)propane-1-sulfonic acid] | – | 143.18 ± 10.65% and 143.18 ± 10.65 ^a % | 113.48 ± 10.27 ^a % | 33.27 ± 6.16 ^b % | 15.63 ± 2.74 ^b % | 14.96 ± 1.25% and 14.96 ± 1.25 ^b % | 8.47 | 0.89 µM | 4.13
3 | O=S(=O)(O)CCCCN1c2ccccc2Sc2cc3ccccc3nc21 [Compound 9, 4-(quino[3,2-b]benzo[1,4]thiazin-6-yl)butane-1-sulfonic acid] | – | 169.62 ± 13.81% and 169.62 ± 13.81 ^a % | 151.45 ± 25.13 ^ab % | 151.54 ± 32.18 ^ab % | 61.36 ± 1.58 ^c % | 26.38 ± 1.73% and 26.38 ± 1.73 ^c % | 2.45 | 0.67 µM and 0.477 µM | 1.09
4 | O=S(=O)(O)CCCCN1c2ccc(F)cc2Sc2cc3ccccc3nc21 [Compound 10, 4-(9-fluoroquino[3,2-b]benzo[1,4]thiazin-6-yl)butane-1-sulfonic acid] | – | 103.85 ± 1.17% and 103.85 ± 1.17 ^a % | 74.74 ± 2.90 ^b % | 69.81 ± 5.23 ^b % | 52.56 ± 4.14 ^c % | 47.16 ± 3.71% and 47.16 ± 3.71 ^c % | 6.21 | 0.477 µM | 2.24
5 | CSc1ccc2c(c1)Sc1cc3ccccc3nc1N2CCCS(=O)(=O)O [Compound 8, 3-(9-methylthio[3,2-b]benzo[1,4]thiazin-6-yl)propane-1-sulfonic acid] | – | 149.62 ± 6.71% and 149.62 ± 6.71 ^a % | 101.04 ± 7.69 ^b % | 71.47 ± 2.98 ^c % | 62.94 ± 4.59 ^c % | 50.89 ± 2.85% and 50.89 ± 2.85 ^d % | 7.36 | 1.32 µM | 0.98
6 | CSc1ccc2c(c1)Sc1cc3ccccc3nc1N2CCCCS(=O)(=O)O [Compound 12, 4-(9-methylthio[3,2-b]benzo[1,4]thiazin-6-yl)butane-1-sulfonic acid] | – | 119.82 ± 5.12% and 119.82 ± 5.12 ^a % | 102.85 ± 1.47 ^b % | 97.18 ± 2.61 ^b % | 80.38 ± 1.72 ^c % | 60.12 ± 1.74% and 60.12 ± 1.74 ^d % | 5.53 | 0.566 µM | 1.8
7 | N=C(N)NN [aminoguanidine, reference compound] | – | – | – | – | – | – | – | – | 0.31
8 | O=S(=O)(O)CCCN1c2ccc(F)cc2Sc2cc3ccccc3nc21 [Compound 6, 3-(9-fluoroquino[3,2-b]benzo[1,4]thiazin-6-yl)propane-1-sulfonic acid] | – | 137.15 ± 9.37 ^a % | 126.66 ± 2.43 ^a % | 88.31 ± 3.13 ^b % | 37.15 ± 9.37% and 69.68 ± 7.12 ^c % | 63.73 ± 1.04% and 63.73 ± 1.04 ^c % | 3.45 | 1.24 µM | 1.57
9 | O=S(=O)(O)CCCN1c2ccccc2Sc2cc3ccccc3nc21 [Compound 5, 3-(quino[3,2-b]benzo[1,4]thiazin-6-yl)propane-1-sulfonic acid] | – | 208.69 ± 13.07% and 208.69 ± 13.07 ^a % | 142.87 ± 15.43 ^b % | 76.83 ± 0.0 ^c % | 39.72 ± 6.30 ^c % | 39.24 ± 0.0 ^c % | 5.49 | 1.57 µM | 0.79
10 | O=S(=O)(O)CCCCN1c2ccc(Cl)cc2Sc2cc3ccccc3nc21 [Compound 11, 4-(9-chloro[3,2-b]benzo[1,4]thiazin-6-yl)butane-1-sulfonic acid] | – | 104.90 ± 5.3% and 104.90 ± 5.31 ^a % | 35.75 ± 11.03 ^c % | 46.64 ± 6.13 ^bc % | 75.96 ± 2.21 ^ab % | 57.18 ± 1.66% and 57.18 ± 1.66 ^bc % | 8.47 | 0.87 µM | 1.89
11 | O=C1O[C@H]([C@@H](O)CO)C(O)=C1O [ascorbic acid, reference compound] | – | – | – | – | – | – | 54.24 | – | –

Reference: publication PMC12024154, “A Study of Antioxidant, Antihyperlipidemic, and Anti-Glycation Effects of Alkylsulfonic Acids with Quinobenzothiazinyl Substituents: In Vitro and In Silico Investigations” (Antioxidants, 2025)
